# In publication PMC8421423, “Cellular model system to dissect the isoform-selectivity of Akt inhibitors” (Nature Communications, 2021):
# Values joined by “and” are separate entries in the source; they are usually repeats but may differ in a detail not shown here. Equal entries are not always repeated. Where two headings read alike, the source gives them in different places.
# Key:
# parental Ba/F3 cells = experiment: CellTiter-Glo cell viability assay; assay type: cell-based, murine; settings: for cell viability: CTG, parental
# Akt1 [1] = molecular target: Akt1 (Homo sapiens, UniProt P31749); experiment: STK HTRF KinEASE activity-based assay (IC50); settings: for Log ratio IC50 [Akt] / IC50 [Akt], Akt1 / Akt2: biochemical activity based assay, log units
# Akt1 (Homo sapiens, UniProt P31749), sequence (P31749 whole entry): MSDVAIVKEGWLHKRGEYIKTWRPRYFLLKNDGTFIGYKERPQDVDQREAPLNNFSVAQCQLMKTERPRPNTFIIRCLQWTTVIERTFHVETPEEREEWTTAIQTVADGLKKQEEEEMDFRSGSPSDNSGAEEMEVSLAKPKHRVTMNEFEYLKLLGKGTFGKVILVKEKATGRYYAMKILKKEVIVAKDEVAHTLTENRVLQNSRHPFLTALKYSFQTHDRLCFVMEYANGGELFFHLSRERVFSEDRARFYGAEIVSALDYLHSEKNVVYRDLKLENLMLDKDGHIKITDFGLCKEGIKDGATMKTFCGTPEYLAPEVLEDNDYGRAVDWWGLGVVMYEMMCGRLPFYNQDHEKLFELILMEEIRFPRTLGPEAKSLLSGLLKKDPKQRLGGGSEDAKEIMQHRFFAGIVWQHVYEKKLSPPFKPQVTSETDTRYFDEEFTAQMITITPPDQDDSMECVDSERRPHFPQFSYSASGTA
# Ba/F3^myr-Akt1 cells = experiment: CellTiter-Glo cell viability assay; settings: for Log ratio EC50 [Akt] / EC50 [Akt], Akt1 / Akt2: cell viability assay Ba/F3 myr-Akt cells, log units
# Akt2 = Akt2 (Homo sapiens, UniProt P31751); experiment: STK HTRF KinEASE activity-based assay (IC50)
# Akt2, sequence (P31751 whole entry): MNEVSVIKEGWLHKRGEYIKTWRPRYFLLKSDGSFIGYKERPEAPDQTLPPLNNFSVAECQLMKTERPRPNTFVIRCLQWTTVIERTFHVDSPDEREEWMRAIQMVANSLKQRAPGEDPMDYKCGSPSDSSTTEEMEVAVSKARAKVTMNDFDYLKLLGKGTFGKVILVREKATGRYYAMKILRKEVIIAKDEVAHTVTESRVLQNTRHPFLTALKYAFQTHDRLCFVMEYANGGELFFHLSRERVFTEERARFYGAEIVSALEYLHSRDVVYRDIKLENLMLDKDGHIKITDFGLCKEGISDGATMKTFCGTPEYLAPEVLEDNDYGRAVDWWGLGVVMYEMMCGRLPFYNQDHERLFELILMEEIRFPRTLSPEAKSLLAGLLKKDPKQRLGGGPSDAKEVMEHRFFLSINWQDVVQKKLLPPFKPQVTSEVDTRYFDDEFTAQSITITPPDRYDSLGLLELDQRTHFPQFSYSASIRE
# Akt1 [2] = molecular target: T1, Akt1 (Homo sapiens, UniProt P31749, E114A/E115A/E116A); experiment: ESI-MS/MS of tryptic digest (modified cysteine residues); assay type: binding; settings: 5-fold molar excess of inhibitor
# T1 construct: AKT1(2–446, E114/115/116A); His6 with TEV protease recognition site (N, cleaved yes); made in house; host or cells: Spodoptera frugiperda (Sf9)
# T1 sequence (P31749 2-446 E114A/E115A/E116A): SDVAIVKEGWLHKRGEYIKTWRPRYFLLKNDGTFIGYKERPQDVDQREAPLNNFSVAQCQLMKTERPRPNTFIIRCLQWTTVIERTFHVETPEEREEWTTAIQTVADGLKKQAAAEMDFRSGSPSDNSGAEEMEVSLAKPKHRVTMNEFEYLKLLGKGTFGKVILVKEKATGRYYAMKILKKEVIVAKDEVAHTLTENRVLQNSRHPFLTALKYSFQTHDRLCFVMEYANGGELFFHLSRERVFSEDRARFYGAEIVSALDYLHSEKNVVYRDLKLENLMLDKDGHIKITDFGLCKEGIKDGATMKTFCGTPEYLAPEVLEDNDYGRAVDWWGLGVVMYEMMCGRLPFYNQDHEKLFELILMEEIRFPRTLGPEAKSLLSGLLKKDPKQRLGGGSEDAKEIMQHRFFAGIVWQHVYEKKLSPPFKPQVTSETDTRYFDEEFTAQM
# Protocol: ESI-MS/MS samples were prepared as stated above followed by steps of reduction, alkylation, and tryptic digest. The digested samples were stage tip-purified using C18 tips and according to a protocol described elsewhere. Subsequently, samples were thawed, dissolved in 20 μL of 0.1% TFA in water, sonicated at room temperature for 15 min, and centrifuged at 15,000×g for 1 min shortly before analysis. In all, 3 μL of sample were loaded onto a pre-column cartridge and desalted for 5 min using 0.1% TFA in water as eluent at a flow rate of 30 μL/min. The samples were back-flushed from the pre-column to the nano-HPLC column during the whole analysis. Elution was performed using a gradient starting at 5% B with a final composition of 30% B after 35 min (flow rate 300 nL/min) using 0.1% formic acid in water as eluent A and 0.1% formic acid in acetonitrile as eluent B and a column temperature of 40 °C. […] During the complete gradient cycle, a typical TOP10 shot-gun proteomics method for the MS and MS/MS analysis was used. For full scan MS experiments a mass range of m/z 300–1650 was scanned with a resolution of 70000. MS/MS experiments were followed by up to 10 high energy collision dissociation (HCD) MS/MS scans with a resolution of 17,500 of the most intense at least doubly charged ions. Data evaluation was performed using MaxQuant[50]. Spectra were searched against the specific Akt sequence and a contamination database using a false discovery rate of 1% on peptide and protein level using a decoy database for determination of the false discovery rate. For database search oxidation of methionine and N-terminal acetylation of proteins, carbamidomethylation of cysteines, and artificial modification of cysteines were defined as variable modifications.
# Ba/F3^myr-Akt2 cells = experiment: CellTiter-Glo cell viability assay
# Akt3 = Akt3 (Homo sapiens, UniProt Q9Y243); experiment: STK HTRF KinEASE activity-based assay (IC50)
# Akt3, sequence (Q9Y243 whole entry): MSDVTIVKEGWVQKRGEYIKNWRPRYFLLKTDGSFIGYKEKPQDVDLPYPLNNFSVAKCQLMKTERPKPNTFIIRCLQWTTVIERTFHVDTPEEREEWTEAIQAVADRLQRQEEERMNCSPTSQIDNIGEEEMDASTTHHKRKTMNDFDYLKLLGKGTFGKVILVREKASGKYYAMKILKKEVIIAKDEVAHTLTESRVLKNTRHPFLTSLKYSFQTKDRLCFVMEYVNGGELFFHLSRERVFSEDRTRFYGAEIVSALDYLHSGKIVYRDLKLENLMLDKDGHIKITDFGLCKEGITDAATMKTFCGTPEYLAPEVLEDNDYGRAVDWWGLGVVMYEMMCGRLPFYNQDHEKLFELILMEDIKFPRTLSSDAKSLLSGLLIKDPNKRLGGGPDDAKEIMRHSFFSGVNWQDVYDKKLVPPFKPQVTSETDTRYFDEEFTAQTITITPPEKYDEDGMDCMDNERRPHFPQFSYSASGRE
# Protocol: The biochemical half maximal inhibitory concentrations (IC50) were determined with the STK HTRF KinEASE assay (Cisbio) according to the manufactor’s instructions. Briefly: 5 µL Kinase solution and 2.5 µL inhibitor solution (8% DMSO in HTRF buffer) were incubated for 1 h before the reaction was started by addition of 2.5 µL starting solution containing ATP and substrate peptide. […] After reaction completion (Akt1: 60 min, Akt2: 20 min, Akt3: 15 min), 10 µL of stop solution were added. […] The quotient of both intensities were recorded at eight different inhibitor concentrations and data fit to a Hill 4-parameter equation with Quattro software suite (Quattro Research GmbH, Martinsried, Germany). Each reaction was performed in duplicates and at least three independent determinations of each IC50 were made.
# Ba/F3^myr-Akt3 cells = experiment: CellTiter-Glo cell viability assay; settings: for Log ratio EC50 [Akt] / EC50 [Akt], Akt3 / Akt2: cell viability assay Ba/F3 myr-Akt cells, log units
# [3] = CellTiter-Glo cell viability assay; assay type: cell-based, murine; settings: mouse, CTG, parental, single replicates
# [4] = test system: pAkt^S473 and downstream targets in Ba/F3 myr-Akt1; settings: Ba/F3 myr-Akt1, 4-h treatment
# [5] = test system: pAkt^S473 and downstream targets in Ba/F3 myr-Akt3; experiment: Western blot analysis, Ba/F3 myr-Akt3 cells; assay type: cell-based, murine; settings: Ba/F3 myr-Akt3, 4-h treatment
# Protocol: Cells were seeded into six-well tissue culture plates (Sarstedt) (BaF3 myr-Akt1/2/3: 10^6 cells/well, PANC1: 250.000 cells/well). After 24 h incubation, cells were treated with various concentrations of inhibitors or DMSO and incubated for additional 4.5 h before cells were washed twice with ice-cold PBS. Cell lysis was initiated by addition of 100 μL RIPA buffer (Cell Signaling Technology) per well supplemented with phosphatase and protease inhibitor cocktails (Sigma) followed by incubation on ice for 20 min. Cells were then harvested by scraping (PANC1) or centrifugation (BaF3). Whole cell lysates were cleared by centrifugation at 14,000×g/4 °C for 10 min and transferred into fresh, pre-cooled microcentrifuge tubes. Protein concentrations were determined using the Pierce BCA protein assay (Thermo) as per manufacturer’s instructions. Equal amounts of protein were separated by SDS-PAGE and transferred to Immobilon-FL PVDF membranes (Merck Millipore) using Pierce™ 1-step transfer buffer (Thermo) and the Pierce™ Power Blotter (Thermo). Membranes were washed for 5 min with ddH2O, blocked with Intercept®Blocking Buffer TBS (Li-Cor) for 1 h at room temperature, and then incubated with primary antibodies diluted in Intercept®Blocking Buffer TBS overnight at 4 °C with gentle agitation. […]
# [6] = Mus musculus, BaF3, CTG, parental BaF3 cell line, read-out: EC50 BaF3
# [7] = Mus musculus, BaF3, parental cells, mean of replicates, read-out: CTG BaF3, Mean
# [8] = Mus musculus, BaF3, parental cells, single replicates, read-out: CTG BaF3, individual determinations
# [9] = parental cells, single replicates, read-out: CTG BaF3, individual determinations
# [10] = HTRF IC50 Akt1, Mean, mean of replicates
# [11] = HTRF IC50 Akt1, individual determinations, single replicates
# [12] = IC50 Akt1, HTRF, ATP at KM, 1 h preincubation
# [13] = Mus musculus, read-out: CTG BaF3myr-Akt1, Mean, mean of replicates
# [14] = Mus musculus, read-out: CTG BaF3myr-Akt1, individual determinations, single replicates
# [15] = read-out: CTG BaF3myr-Akt1, individual determinations, single replicates
# [16] = HTRF IC50 Akt2, individual determinations, single replicates
# [17] = IC50 Akt2, HTRF, ATP at KM, 1 h preincubation
# [18] = read-out: CTG BaF3myr-Akt2, individual determinations, single replicates
# [19] = IC50 Akt3, HTRF, ATP at KM, 1 h preincubation
# [20] = Mus musculus, read-out: CTG BaF3myr-Akt3, Mean, mean of replicates
# [21] = Mus musculus, read-out: CTG BaF3myr-Akt3, individual determinations, single replicates
# [22] = read-out: CTG BaF3myr-Akt3, individual determinations, single replicates
Structure (SMILES),EC50 (parental Ba/F3 cells; [6]) [µM],EC50 (parental Ba/F3 cells; [7]) [µM],EC50 (parental Ba/F3 cells; [8]) [µM],EC50 (parental Ba/F3 cells; [9]) [µM],IC50 (Akt1 [1]; [10]) [µM],IC50 (Akt1 [1]; [11]),IC50 (Akt1 [1]; [12]) [µM],"Log ratio IC50 [Akt] / IC50 [Akt], Akt1 / Akt2 (Akt1 [1])",EC50 (Ba/F3^myr-Akt1 cells; [13]) [µM],EC50 (Ba/F3^myr-Akt1 cells; [14]) [µM],"Log ratio EC50 [Akt] / EC50 [Akt], Akt1 / Akt2 (Ba/F3^myr-Akt1 cells)",EC50 (Ba/F3^myr-Akt1 cells; [15]),IC50 (Akt2; [16]),IC50 (Akt2; [17]) [µM],modified cysteine residues in Akt1 (MS/MS) (Akt1 [2]),EC50 (Ba/F3^myr-Akt2 cells; [18]),IC50 (Akt3; [19]) [µM],EC50 (Ba/F3^myr-Akt3 cells; [20]) [µM],EC50 (Ba/F3^myr-Akt3 cells; [21]) [µM],EC50 (Ba/F3^myr-Akt3 cells; [22]),other results
C=CC(=O)Nc1ccc2[nH]c(=O)n(C3CCN(Cc4ccc(-c5ncc(CO)cc5-c5ccccc5)cc4)CC3)c2c1 [compound 3],> 30,> 30,> 30,> 30,0.184,0.133 µM and 0.103 µM and 0.189 µM and 0.31 µM,0.186 ± 0.079,-0.71,28.3,26.6,0.13,28.3 µM,1.02 µM and 0.724 µM and 1.14 µM,0.961 ± 0.174,Cys296 and Cys310,21.2 µM and 12.4 µM and > 30 µM,> 20,> 30,> 30,> 30 µM,"EC50 BaF3myr-Akt1 (Ba/F3^myr-Akt1 cells; CTG): generally inactive; IC50 (Akt2; HTRF IC50 Akt2, Mean, mean of replicates): 0.961 µM; EC50 BaF3myr-Akt3 (Ba/F3^myr-Akt3 cells; CTG): generally inactive; EC50 (Ba/F3^myr-Akt3 cells; Mus musculus, read-out: EC50 BaF3myr-Akt3, CTG): > 30 µM; Log ratio EC50 [Akt] / EC50 [Akt], Akt3 / Akt2 (Ba/F3^myr-Akt3 cells): -0.15"
"C=CC(=O)Nc1ccc2[nH]c(=O)n(C3CCN(Cc4ccc(-c5nc6cc[nH]c(=O)c6cc5-c5ccccc5)cc4)CC3)c2c1 [Borussertib, reference compound]",–,–,–,–,–,–,–,–,0.44,0.341,–,0.491 µM and 0.488 µM,–,–,–,–,–,6.84,6.16,6.18 µM and 7.62 µM and 7.38 µM,"cell viability (parental Ba/F3 cells; 0.1 nM, single replicates, 0.0001 µM): 106.4 % of control and 91.0 % of control; cell viability (parental Ba/F3 cells; 5000 nM, single replicates, 5 µM): 102.2 % of control and 91.4 % of control; EC50 (parental Ba/F3 cells; Mus musculus, BaF3, read-out: CTG BaF3, Mean, parental cells, mean of replicates): 20.1 µM; EC50 (parental Ba/F3 cells; read-out: CTG BaF3, individual determinations, parental cells, single replicates): 16.8 µM and 10.9 µM and 24.4 µM; viability at 3 days, 0.0001 µM ([3]; 0.1 nM, read-out: cell viability): 98.5%; viability at 3 days, 5 µM ([3]; 5000 nM): 108%; cell viability (Ba/F3^myr-Akt1 cells; CTG, myr-Akt1, 0.1 nM, single replicates, 0.0001 µM): 99.2 % of control and 105.4 % of control; cell viability (Ba/F3^myr-Akt1 cells; CTG, myr-Akt1, 5000 nM, single replicates, 5 µM): 3.1 % of control and 7.0 % of control and 4.5 % of control; viability at 0.0001 µM (Ba/F3^myr-Akt1 cells; Mus musculus, read-out: cell viability, CTG, myr-Akt1, 0.1 nM, single replicates): 90%; pAkt and downstream targets (immunoblot) [4]: dose-dependent reduction of pAkt; cell viability (Ba/F3^myr-Akt3 cells; CTG, myr-Akt3, 0.1 nM, single replicates, 0.0001 µM): 96.6 % of control and 95.9 % of control; cell viability (Ba/F3^myr-Akt3 cells; CTG, myr-Akt3, 5000 nM, single replicates, 5 µM): 70.7 % of control and 65.0 % of control; viability at 5 µM (Ba/F3^myr-Akt3 cells; Mus musculus, read-out: cell viability, CTG, myr-Akt3, 5000 nM, single replicates): 73.8%; pAkt and downstream targets (immunoblot) [5]: dose-dependent reduction of pAkt"
C=CC(=O)Nc1ccc2[nH]c(=O)n(C3CCN(Cc4ccc(-c5ncc(C(=O)NC)cc5-c5ccccc5)cc4)CC3)c2c1 [compound 6],> 30,> 30,> 30,> 30,0.112,0.113 µM and 0.133 µM and 0.0909 µM,0.112 ± 0.021,0.02,9.61,7.7,-0.05,11.7 µM and 9.47 µM,0.0841 µM and 0.151 µM and 0.0886 µM,0.108 ± 0.031,Cys296 and Cys310,7.18 µM and 12.6 µM,5.75 ± 1.55,–,> 30,22.6 µM and 24.5 µM,"loss of activity compared to the ester version (Akt1 [1]; Akt1, biochemical IC50): 4 fold; EC50 (Ba/F3^myr-Akt2 cells; Mus musculus, read-out: CTG BaF3myr-Akt2, Mean, mean of replicates): 10.8 µM; EC50 (Ba/F3^myr-Akt2 cells; Mus musculus, read-out: CTG BaF3myr-Akt2, individual determinations, single replicates): 12.6 µM; IC50 (Akt3; HTRF IC50 Akt3, Mean, mean of replicates): 5.75 µM; IC50 (Akt3; HTRF IC50 Akt3, individual determinations, single replicates): 5.69 µM and 3.89 µM and 7.68 µM; Log ratio EC50 [Akt] / EC50 [Akt], Akt3 / Akt2 (Ba/F3^myr-Akt3 cells): -0.38"
